ChEMBL document CHEMBL1201862, “PubChem BioAssay data set” (2004)
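96-well plates; 48 h exposure; 5 concentrations. Endpoints by linear interpolation between flanking doses. Not reached: highest tested concentration assigned. GI50: concentration for 50% inhibition of growth.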 The source made the active and inactive calls. Rule as the data show it: active = GI50 up to about 1.1 µM and inactive = higher.

Assays:
Experiment in all cases: growth of human tumour cells (NCI), 48 h
MDA-N = tested on: MDA-N
UO-31 = tested on: UO-31
NCI/ADR-RES = tested on: NCI/ADR-RES
HL-60 = tested on: HL-60
A549 = tested on: A549
SK-OV-3 = tested on: SK-OV-3
OVCAR-4 = tested on: OVCAR-4
HOP-62 = tested on: HOP-62
SNB-75 = tested on: SNB-75
MOLT-4 = tested on: MOLT-4
OVCAR-8 = tested on: OVCAR-8
UACC-257 = tested on: UACC-257
K562 = tested on: K562
HCT-116 = tested on: HCT-116
Hs-578T = tested on: Hs-578T
NCI-H226 = tested on: NCI-H226
HCT-15 = tested on: HCT-15
T47D = tested on: T47D
CCRF-CEM = tested on: CCRF-CEM

Measured: GI50

CCOC(=O)c1c(NS(=O)(=O)c2ccc(Br)cc2)sc2c1CCCC2
7.35 µM: HCT-15
inactive: MDA-N 13.8 µM | UO-31 3.51 µM | NCI/ADR-RES 1.57 µM | HL-60 6.18 µM | A549 7.78 µM | SK-OV-3 18.5 µM | OVCAR-4 30.1 µM | HOP-62 5.9 µM | SNB-75 4.11 µM | MOLT-4 4.91 µM | OVCAR-8 5.89 µM | UACC-257 9.23 µM | K562 5.79 µM | HCT-116 7.52 µM | Hs-578T 4.43 µM | NCI-H226 3.66 µM | T47D 6.61 µM | CCRF-CEM 5.51 µM

COc1ccc(Nc2nc3ccccc3nc2-c2cccs2)cc1OC
> 10 µM: HCT-15
inactive: MDA-N > 10 µM | UO-31 > 10 µM | NCI/ADR-RES > 10 µM | HL-60 > 10 µM | A549 > 10 µM | SK-OV-3 > 10 µM | OVCAR-4 > 10 µM | HOP-62 > 10 µM | SNB-75 > 10 µM | MOLT-4 > 10 µM | OVCAR-8 > 10 µM | UACC-257 > 10 µM | K562 > 10 µM | HCT-116 > 10 µM | Hs-578T > 10 µM | NCI-H226 > 10 µM | T47D > 10 µM | CCRF-CEM > 10 µM

Oc1ccc(Br)cc1/C=N/c1cccc(C(F)(F)F)c1
6.07 µM: HCT-15
inactive: MDA-N 32.9 µM | UO-31 35.6 µM | NCI/ADR-RES 28.5 µM | HL-60 3.2 µM | A549 > 100 µM | SK-OV-3 45.7 µM | OVCAR-4 34.8 µM | HOP-62 49.5 µM | SNB-75 42.6 µM | MOLT-4 23.1 µM | OVCAR-8 30.4 µM | UACC-257 35.6 µM | K562 12.4 µM | HCT-116 9.12 µM | Hs-578T 28 µM | NCI-H226 17.3 µM | T47D 19.9 µM | CCRF-CEM 3.37 µM

C=C1C(=O)O[C@H]2[C@H]3O[C@@H](C[C@@H]12)[C@@]1(C)CC[C@H](O1)C(C)=CCC[C@H]3C
inactive: MDA-N 1.53 µM | UO-31 1.46 µM | NCI/ADR-RES 1.72 µM | A549 2.25 µM | SK-OV-3 4.58 µM | OVCAR-4 1.59 µM | HOP-62 6.27 µM | SNB-75 1.73 µM | MOLT-4 1.26 µM | OVCAR-8 1.44 µM | UACC-257 1.76 µM | HCT-116 1.45 µM | Hs-578T 2.65 µM | NCI-H226 2.46 µM | T47D 2.11 µM
1.49 µM: HCT-15
active: HL-60 0.278 µM | K562 1.08 µM | CCRF-CEM 0.324 µM

COC(=O)/C(C#N)=C/c1cc(C(C)(C)C)c(O)c(C(C)(C)C)c1
active: NCI/ADR-RES 1.11 µM | T47D 0.83 µM
inactive: MDA-N 2.92 µM | UO-31 2.17 µM | HL-60 1.88 µM | A549 2.64 µM | SK-OV-3 2.48 µM | OVCAR-4 1.85 µM | HOP-62 3.15 µM | SNB-75 3.3 µM | MOLT-4 2.2 µM | OVCAR-8 2.99 µM | UACC-257 1.82 µM | K562 2.59 µM | HCT-116 2.66 µM | Hs-578T 3.55 µM | NCI-H226 1.96 µM | CCRF-CEM 1.9 µM
2.67 µM: HCT-15

COC(=O)/C(=N\NC(N)=O)C(C(=O)C(=O)Nc1ccccc1OC)c1nc2ccc([N+](=O)[O-])cc2nc1O (centres undefined)
inactive: MDA-N 55.1 µM | UO-31 > 100 µM | NCI/ADR-RES > 100 µM | HL-60 > 100 µM | A549 > 100 µM | SK-OV-3 > 100 µM | OVCAR-4 53 µM | HOP-62 > 100 µM | SNB-75 > 100 µM | MOLT-4 > 10 µM | OVCAR-8 > 100 µM | UACC-257 > 100 µM | K562 30 µM | HCT-116 > 100 µM | Hs-578T 82.2 µM | NCI-H226 > 100 µM | T47D > 100 µM | CCRF-CEM > 100 µM
> 100 µM: HCT-15

Cc1cc(S(=O)(=O)Nc2nc(N)nc(N3N=CCC3C)n2)c(SCC(=O)O)cc1Cl (centres undefined)
> 10 µM: HCT-15
inactive: MDA-N > 10 µM | NCI/ADR-RES > 10 µM | HL-60 > 10 µM | A549 > 10 µM | SK-OV-3 > 10 µM | OVCAR-4 > 10 µM | HOP-62 > 10 µM | SNB-75 > 10 µM | MOLT-4 > 10 µM | OVCAR-8 > 10 µM | UACC-257 > 10 µM | K562 > 10 µM | HCT-116 > 10 µM | Hs-578T > 10 µM | NCI-H226 > 10 µM | T47D > 10 µM | CCRF-CEM > 10 µM
active: UO-31 0.001 µM

COc1cc2c(c(O)c1OC)C(=O)[C@@H]1CCC(=O)N1C2c1ccccc1 (some centres undefined)
> 100 µM: HCT-15
inactive: MDA-N > 100 µM | UO-31 39.6 µM | NCI/ADR-RES > 100 µM | HL-60 45.5 µM | A549 59 µM | SK-OV-3 > 100 µM | OVCAR-4 > 100 µM | HOP-62 > 100 µM | SNB-75 35.6 µM | MOLT-4 36 µM | OVCAR-8 57.5 µM | UACC-257 > 100 µM | K562 38.6 µM | HCT-116 66.8 µM | Hs-578T 40.5 µM | NCI-H226 > 100 µM | T47D > 100 µM | CCRF-CEM 30.5 µM

COc1ccccc1C1ON=C(c2ccc([N+](=O)[O-])cc2)N1C12CC3CC(CC(C3)C1)C2 (centres undefined)
91.6 µM: HCT-15
inactive: MDA-N > 100 µM | UO-31 > 100 µM | NCI/ADR-RES > 100 µM | HL-60 4.35 µM | A549 94 µM | SK-OV-3 > 100 µM | OVCAR-4 > 100 µM | HOP-62 20.4 µM | SNB-75 42.1 µM | MOLT-4 17.6 µM | OVCAR-8 > 100 µM | UACC-257 > 100 µM | K562 36.7 µM | HCT-116 47.5 µM | Hs-578T 37.9 µM | NCI-H226 > 100 µM | T47D 14 µM | CCRF-CEM 28.7 µM

CC1Oc2cc3c(-c4c(O)cc(O)c5c(O)c6c(cc45)OC(C)C(C)C6=O)c(O)cc(O)c3c(O)c2C(=O)C1C (centres undefined)
0.0474 µM: HCT-15
active: MDA-N 0.359 µM | UO-31 0.213 µM | NCI/ADR-RES 0.162 µM | HL-60 0.24 µM | A549 0.0252 µM | SK-OV-3 0.363 µM | OVCAR-4 0.0869 µM | HOP-62 0.282 µM | SNB-75 0.0675 µM | MOLT-4 0.109 µM | OVCAR-8 0.0859 µM | UACC-257 0.289 µM | K562 0.0526 µM | HCT-116 0.0378 µM | Hs-578T 0.0439 µM | NCI-H226 0.0871 µM | T47D 0.259 µM | CCRF-CEM 0.0279 µM

CCOC(=O)c1c(-c2ccccc2)[nH]c2ccc(Cl)cc2c1=O
inactive: MDA-N 37.7 µM | UO-31 29.4 µM | NCI/ADR-RES 32.2 µM | HL-60 28.2 µM | A549 36.6 µM | SK-OV-3 45.1 µM | OVCAR-4 20.5 µM | HOP-62 65.9 µM | SNB-75 45.8 µM | MOLT-4 28.3 µM | OVCAR-8 31.8 µM | UACC-257 36 µM | K562 28.8 µM | HCT-116 27.2 µM | Hs-578T 35.4 µM | NCI-H226 68.9 µM | T47D 23.7 µM | CCRF-CEM 26.4 µM
33.3 µM: HCT-15

NCCP(=O)(O)O
inactive: MDA-N > 100 µM | UO-31 > 100 µM | NCI/ADR-RES > 100 µM | HL-60 > 100 µM | A549 > 100 µM | SK-OV-3 > 100 µM | OVCAR-4 > 100 µM | HOP-62 > 100 µM | SNB-75 > 100 µM | MOLT-4 > 100 µM | OVCAR-8 > 100 µM | UACC-257 > 100 µM | K562 > 100 µM | HCT-116 > 100 µM | Hs-578T > 100 µM | NCI-H226 > 100 µM | T47D > 100 µM | CCRF-CEM > 100 µM
> 100 µM: HCT-15

CC(=O)Oc1c(C)c2c(c3ncccc13)OC(C)C2 (centres undefined)
12.1 µM: HCT-15
inactive: MDA-N 11 µM | UO-31 14.8 µM | NCI/ADR-RES 15.6 µM | HL-60 7.4 µM | A549 13.4 µM | SK-OV-3 21 µM | OVCAR-4 16.3 µM | HOP-62 17.1 µM | SNB-75 14.8 µM | MOLT-4 6.41 µM | OVCAR-8 14.5 µM | UACC-257 14.8 µM | K562 10.2 µM | HCT-116 14.9 µM | Hs-578T 22.2 µM | NCI-H226 16.4 µM | T47D 9.14 µM | CCRF-CEM 6.37 µM

C=CC(=C)CCC(Br)C(C)(C)Cl (centres undefined)
inactive: MDA-N > 100 µM | UO-31 > 100 µM | NCI/ADR-RES > 100 µM | HL-60 37.1 µM | A549 > 100 µM | SK-OV-3 > 100 µM | OVCAR-4 > 100 µM | HOP-62 > 100 µM | SNB-75 > 100 µM | MOLT-4 85.1 µM | OVCAR-8 > 100 µM | UACC-257 > 100 µM | K562 > 100 µM | HCT-116 > 100 µM | Hs-578T > 100 µM | NCI-H226 > 100 µM | T47D > 100 µM | CCRF-CEM 87.5 µM
> 100 µM: HCT-15

Cc1nn(C(=O)c2ccc(Cl)cc2)c2c1C(/C=C/c1ccccc1)SC(=N)N2 (centres undefined)
inactive: MDA-N > 10 µM | NCI/ADR-RES > 10 µM | HL-60 > 10 µM | A549 > 10 µM | SK-OV-3 > 10 µM | OVCAR-4 > 10 µM | HOP-62 > 10 µM | SNB-75 > 10 µM | MOLT-4 > 10 µM | OVCAR-8 > 10 µM | UACC-257 > 10 µM | K562 > 10 µM | HCT-116 > 10 µM | Hs-578T > 10 µM | NCI-H226 > 10 µM | T47D > 10 µM | CCRF-CEM > 10 µM
> 10 µM: HCT-15
